Assay results from patent publication US7135466B2 (Kirin Beer Kabushiki Kaisha, priority 1999, dated 2006).
pIC50: −log10 of the molar value.

Legend:
PDGF-Ra = biological target: T1, PDGF-Ra (Homo sapiens, UniProt P16234); assay: Inhibitory activity against PDGF-Ra phosphorylation by PDGF-AA stimulation using G292; assay type: cell-based; conditions: > means inhibition at indicated concentration not more than 50%, < and << not less than 50%; read-out: PDGF (E) IC50
T1 construct: host or cells: G-292 human osteosarcoma cells
Procedure, shortened: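 Phosphorylated PDGF-Ra was measured colorimetrically (450 nm) after tyrosine-phosphorylated proteins from G-292 lysates were bound to PY-20-coated wells and detected with anti-PDGF-Ra antibody. Compound preincubation lasted 1 hr, followed by 50 ng/ml PDGF-AA for 5 min.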

c-kit = biological target: T2, c-kit (Homo sapiens, UniProt P10721); assay: Inhibitory activity against c-kit autophosphorylation (MO7e cells, h-SCF); assay type: cell-based; conditions: for pIC50: MO7e cells, 50 ng/ml h-SCF, read-out: c-kit IC50; for inhibition at 1 µM: Mo7e, figure within parentheses in −( ) or >1000( ), at 1000 nM
T2 construct: MO7e (human megakaryocytic leukemia cell line) which had been arrested for 20 hr; endogenous in cells; host or cells: MO7e human megakaryocytic leukemia cell line
Procedure, shortened: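 In this cellular autophosphorylation assay, compound-treated MO7e cells (1 hr) were challenged with human stem cell factor at 50 ng/ml for 5 min; detection relied on PY-20 capture and anti-c-kit/HRP immunodetection at 450 nm.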

[1] = test system: neointima of balloon-injured left carotid artery; assay: Rat carotid balloon injury model; assay type: in vivo; conditions: po, 336 h, in vivo, orally twice a day for 2 weeks, Wistar male rats, read-out: I/M ratio, inhibition (%)
Description: Rat Carotid Balloon Injury Model
Wistar male rats ([…]) were anesthetized with pentobarbital anesthesia, the right femoral region was incised from the rats, a Fogaty 2F catheter was inserted through the right femoral artery and was led to the left carotid artery, and abrasion was made three times with an expansion diameter of 2.5 mm.
The test compound was suspended in 1% cremophore, and the suspension was orally administered at 0.4 ml/100 g B.W. twice a day through an oral probe for rats for 2 weeks from the day before an operation. On the second week after the operation, the rats were sacrificed by ether. The left carotid artery was removed and was fixed in buffered formalin. Sliced preparations embedded in paraffin were stained with HE and were subjected to image analysis for the measurement of the neointima area (I) and media area (M) in the section of injured blood vessal. I/M was calculated as an index for the evaluation of drug efficacy.

human KDR = biological target: T3, human KDR (Homo sapiens, UniProt P35968); assay: Inhibitory activity against KDR phosphorylation (NIH 3T3 cells transfected with human KDR, VEGF); assay type: cell-based; conditions: VEGF 100 ng/ml
T3 construct: expressed in transfected cells; host or cells: NIH 3T3 cells
Description: Measurement of Inhibitory Activity Against KDR Phosphorylation
NIH 3T3 cells (Sawano A et al., Cell Growth & Differentiation, 7, 213–221 (1996)) prepared by transfection of human KDR were cultured in a DMEM medium containing 10% FBS (GIBCO BRL) within a 5% carbon dioxide incubator until 50 to 70% confluent. The harvested cells were inoculated into wells of a collagen-type one-coat 96-well flat-bottom plate, each containing the same medium, in an amount of 1.5×10^4 per well, followed by cultivation at 37° C. overnight. The medium was then replaced by a DMEM medium containing 0.1% FBS. A solution of a test compound in dimethyl sulfoxide was added to each well, and the cultivation was carried out at 37° C. for additional one hr. A human recombinant vascular endothelial growth factor (hereinafter abbreviated to “VEGF”) was added to a concentration of 100 ng/ml, and the stimulation of cells was carried out at 37° C. for 2 min. The medium was removed, the cells were washed with phosphate buffered saline (pH 7.4), and 50 μl of a solubilization buffer (20 mM HEPES (pH 7.4), 150 mM NaCl, 0.2% Triton X-100, 10% glycerol, 5 mM sodium orthovanadylate, 5 mM disodium ethylenediaminetetraacetate, and 2 mM Na4P2O7) was then added thereto. The mixture was shaken at 4° C. for 2 hr to prepare a cell extract.
An anti-phospho-tyrosine antibody (PY20; Transduction Laboratories) was immobilized on a microplate for ELISA (Maxisorp; NUNC), and the whole quantity of the cell extract was transferred to the wells, and the immobilized antibody was reacted with the phosphorylated protein at 4° C. overnight. After washing, an anti-KDR antibody (Santa Cruz) was allowed to react at room temperature for one hr, and, further, after washing, a peroxidase-labeled anti-rabbit Ig antibody (Amersham) was allowed to react at room temperature for one hr. After washing, a chromophoric substrate for peroxidase (Sumitomo Bakelite Co., Ltd.) was added thereto and was allowed to react at room temperature. After a suitable level of color development, a reaction termination solution was added to stop the reaction, and the absorbance at 450 nm was measured with a microplate reader. The KDR phosphorylation activity for each well was determined by presuming the absorbance with the addition of VEGF and without the addition of the medicament to be 100% KDR phosphorylation activity and the absorbance without the medicament and VEGF to be 0% KDR phosphorylation activity.
The concentration of the test compound was varied on several levels, the inhibition (%) of KDR phosphorylation was determined for each case, and the concentration of the test compound necessary for inhibiting 50% of KDR phosphorylation (IC50) was calculated.

[2] = test system: intima of balloon-injured coronary vessel; assay: Porcine coronary balloon injury model; assay type: in vivo; conditions: 10 mg/kg orally twice a day for 28 days, gelatin capsule, shoats
Description: Porcine Coronary Balloon Injury Model Edible shoats (24 to 31 kg) were anesthetized with telazol and xylazine, a balloon catheter was inserted through the femoral artery, and the descending branch in front of the heart on the left and the right rotator branch were injured under vasographing. For 28 days from the operation, the compound of Example 679 was orally administered as a gelatin capsule at a dose of 10 mg/kg twice a day. Further, only a gelatin capsule was administered as a control. In the test, each group consisted of 6 shoats. On the 28th day from the operation, the shoats were sacrificed with pentobarbital and were perfused with buffered formalin, and the heart was then removed. Paraffin embedded preparations of the injured blood vessel portion were sliced and stained with HE, followed by image analysis to measure the intima area (IA), media area (MA), and vessel area (VA), and the fissure length (FL) and vessel perimeter (VP) of the inner elastic plate. IA/MA and (IA/VA)/(FL/VP) were calculated as an index for the evaluation of drug efficacy.

T1 sequence (P16234 24-1089): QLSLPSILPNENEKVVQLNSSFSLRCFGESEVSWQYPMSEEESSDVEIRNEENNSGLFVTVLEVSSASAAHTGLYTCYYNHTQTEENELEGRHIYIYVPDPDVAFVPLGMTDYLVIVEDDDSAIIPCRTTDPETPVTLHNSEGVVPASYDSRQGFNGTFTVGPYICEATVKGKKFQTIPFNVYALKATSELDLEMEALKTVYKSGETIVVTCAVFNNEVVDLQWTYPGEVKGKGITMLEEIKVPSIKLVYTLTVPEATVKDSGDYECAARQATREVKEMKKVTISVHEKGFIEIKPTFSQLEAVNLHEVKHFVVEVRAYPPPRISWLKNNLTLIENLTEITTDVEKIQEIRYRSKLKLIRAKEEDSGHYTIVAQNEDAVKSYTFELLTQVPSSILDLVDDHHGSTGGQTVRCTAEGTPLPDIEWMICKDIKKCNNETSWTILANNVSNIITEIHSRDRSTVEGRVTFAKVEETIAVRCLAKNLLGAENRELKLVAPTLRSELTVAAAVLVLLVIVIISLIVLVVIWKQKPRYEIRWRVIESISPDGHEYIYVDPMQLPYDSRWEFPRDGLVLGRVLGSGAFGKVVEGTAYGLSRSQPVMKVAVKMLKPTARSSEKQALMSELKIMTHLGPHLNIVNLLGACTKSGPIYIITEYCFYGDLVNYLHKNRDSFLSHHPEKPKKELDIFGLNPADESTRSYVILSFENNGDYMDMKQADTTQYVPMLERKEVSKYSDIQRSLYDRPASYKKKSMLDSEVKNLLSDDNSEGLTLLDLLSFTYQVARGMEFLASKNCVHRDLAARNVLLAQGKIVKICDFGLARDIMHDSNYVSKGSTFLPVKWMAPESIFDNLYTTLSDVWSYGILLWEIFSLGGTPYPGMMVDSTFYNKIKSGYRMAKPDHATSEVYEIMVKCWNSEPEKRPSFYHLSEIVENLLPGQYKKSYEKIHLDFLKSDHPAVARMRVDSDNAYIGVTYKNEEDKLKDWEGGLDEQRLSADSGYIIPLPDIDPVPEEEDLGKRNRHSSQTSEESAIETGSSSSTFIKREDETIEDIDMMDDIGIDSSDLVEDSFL
T3 sequence (P35968 20-1356): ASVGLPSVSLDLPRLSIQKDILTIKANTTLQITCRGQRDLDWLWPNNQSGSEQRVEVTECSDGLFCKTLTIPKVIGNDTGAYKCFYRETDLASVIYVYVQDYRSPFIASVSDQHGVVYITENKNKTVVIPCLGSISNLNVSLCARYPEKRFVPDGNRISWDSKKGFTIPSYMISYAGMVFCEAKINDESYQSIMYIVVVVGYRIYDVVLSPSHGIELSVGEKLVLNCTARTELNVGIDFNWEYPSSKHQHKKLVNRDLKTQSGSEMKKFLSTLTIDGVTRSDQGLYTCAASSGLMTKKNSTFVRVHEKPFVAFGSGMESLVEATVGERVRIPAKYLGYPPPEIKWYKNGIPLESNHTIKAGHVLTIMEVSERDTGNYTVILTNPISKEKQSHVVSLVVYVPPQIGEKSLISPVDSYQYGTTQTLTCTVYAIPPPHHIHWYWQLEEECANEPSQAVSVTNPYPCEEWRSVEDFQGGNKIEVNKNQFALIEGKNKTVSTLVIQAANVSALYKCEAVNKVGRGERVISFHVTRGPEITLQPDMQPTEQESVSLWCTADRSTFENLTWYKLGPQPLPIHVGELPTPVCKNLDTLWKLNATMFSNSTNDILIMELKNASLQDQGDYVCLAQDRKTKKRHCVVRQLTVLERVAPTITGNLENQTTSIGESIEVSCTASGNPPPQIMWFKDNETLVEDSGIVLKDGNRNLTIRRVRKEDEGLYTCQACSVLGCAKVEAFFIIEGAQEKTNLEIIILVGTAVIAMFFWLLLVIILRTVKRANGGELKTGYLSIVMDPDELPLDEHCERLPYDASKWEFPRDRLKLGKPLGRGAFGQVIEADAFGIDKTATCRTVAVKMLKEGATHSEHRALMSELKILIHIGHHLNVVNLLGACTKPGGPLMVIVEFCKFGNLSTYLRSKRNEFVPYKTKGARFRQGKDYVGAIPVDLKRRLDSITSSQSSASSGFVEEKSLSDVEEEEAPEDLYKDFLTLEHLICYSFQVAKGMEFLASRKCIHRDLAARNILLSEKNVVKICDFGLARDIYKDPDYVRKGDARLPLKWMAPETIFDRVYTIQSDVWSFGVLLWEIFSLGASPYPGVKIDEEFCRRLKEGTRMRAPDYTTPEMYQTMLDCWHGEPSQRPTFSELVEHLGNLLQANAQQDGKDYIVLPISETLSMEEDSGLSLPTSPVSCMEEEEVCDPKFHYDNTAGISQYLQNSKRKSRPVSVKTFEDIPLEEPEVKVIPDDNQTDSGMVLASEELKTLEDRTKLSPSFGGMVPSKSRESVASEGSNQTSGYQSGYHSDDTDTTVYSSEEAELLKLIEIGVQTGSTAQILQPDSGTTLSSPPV
T2 sequence (P10721 26-976): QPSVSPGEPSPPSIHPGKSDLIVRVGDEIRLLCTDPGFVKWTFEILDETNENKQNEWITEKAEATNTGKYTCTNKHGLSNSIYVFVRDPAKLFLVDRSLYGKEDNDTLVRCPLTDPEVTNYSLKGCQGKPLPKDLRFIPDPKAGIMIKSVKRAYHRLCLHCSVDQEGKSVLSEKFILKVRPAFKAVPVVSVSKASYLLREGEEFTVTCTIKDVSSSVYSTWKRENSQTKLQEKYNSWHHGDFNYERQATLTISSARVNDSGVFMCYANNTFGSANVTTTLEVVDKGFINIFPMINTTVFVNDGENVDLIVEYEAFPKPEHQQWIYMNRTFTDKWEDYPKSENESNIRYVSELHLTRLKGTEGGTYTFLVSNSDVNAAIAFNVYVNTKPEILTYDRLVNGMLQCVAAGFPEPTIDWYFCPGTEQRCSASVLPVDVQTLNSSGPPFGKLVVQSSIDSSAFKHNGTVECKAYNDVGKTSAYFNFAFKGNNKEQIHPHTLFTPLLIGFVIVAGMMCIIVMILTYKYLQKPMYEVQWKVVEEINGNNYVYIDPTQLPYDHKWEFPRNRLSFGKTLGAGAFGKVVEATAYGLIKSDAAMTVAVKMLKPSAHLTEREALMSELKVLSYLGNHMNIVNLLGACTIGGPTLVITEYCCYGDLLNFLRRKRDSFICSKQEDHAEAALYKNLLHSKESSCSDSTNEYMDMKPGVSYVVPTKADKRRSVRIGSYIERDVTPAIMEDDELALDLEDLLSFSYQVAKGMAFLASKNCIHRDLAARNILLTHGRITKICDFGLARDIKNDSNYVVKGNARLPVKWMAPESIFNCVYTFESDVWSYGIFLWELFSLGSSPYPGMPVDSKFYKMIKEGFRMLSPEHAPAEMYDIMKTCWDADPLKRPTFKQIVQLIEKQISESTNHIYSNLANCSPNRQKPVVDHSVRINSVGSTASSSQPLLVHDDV

pIC50 (PDGF-Ra)	pIC50 (c-kit)	IC50 (human KDR) [nM]	inhibition at 1 µM (c-kit) [%]	Compound	inhibition in vivo at 30 mg/kg [1] [%]	inhibition in vivo at 10 mg/kg [1] [%]	(IA/VA)/(FL/VP) inhibition (%) [2]	IA/MA inhibition (%) [2]
> 8.00	6.72	108		C#CCC(CC)OC(=O)Nc1ccc(Oc2ccnc3cc(OC)c(OC)cc23)cc1 (stereo not shown) [Example 408, 1-Ethyl-3-butynyl N-{4-[(6,7-dimethoxy-4-quinolyl)oxy]phenyl}carbamate]	50			
> 8.00	7.47	692		COc1cc2nccc(Oc3ccc(NC(=O)OCCCN4CCOCC4)cc3)c2cc1OC [Example 421, 3-Morpholinopropyl N-{4-[(6,7-dimethoxy-4-quinolyl)oxy]phenyl}carbamate]	42			
7.30		> 1000	27	CCN(CC)CCNC(=S)Nc1ccc(Oc2ncnc3cc(OC)c(OC)cc23)cc1 [Example 516, N-{4-[(6,7-Dimethoxy-4-quinazolinyl)oxy]phenyl}-N′-(2-diethylaminoethyl)thiourea]	32			
7.68	6.93	> 1000		COc1cc2ncnc(Oc3ccc(NC(=O)N[C@H]4CCN(Cc5ccccc5)C4)cc3)c2cc1OC [Example 567, N-[(3S)-1-Benzyltetrahydro-1H-3-pyrrolyl]-N′-{4-[(6,7-dimethoxy-4-quinazolinyl)oxy]phenyl}urea]		24		
7.27	6.53	> 1000		COc1cc2nccc(Oc3ccc(NC(=O)NC4CCN(Cc5ccccc5)CC4)cc3)c2cc1OC [Example 590, N-{4-[(6,7-Dimethoxy-4-quinolyl)oxy]phenyl}-N′-[4-(N-benzyl)piperidinyl]urea]	86			
> 8.00	6.36	47		COc1cc2nccc(Oc3ccc(NC(=S)NC(=O)c4ccccc4C)cc3)c2cc1OC [Example 614, N-{4-[(6,7-Dimethoxy-4-quinolyl)oxy]-phenyl}-N′-(2-methylbenzoyl)thiourea]	92			
7.77	6.90	37		COc1cc2nccc(Oc3ccc(NC(=S)NC(=O)Cc4ccccc4)cc3F)c2cc1OC [Example 615, N-{4-[(6,7-Dimethoxy-4-quinolyl)oxy]-3-fluorophenyl}-N′-(2-phenylacetyl)thiourea]	43			
7.96	6.45	> 1000		CCN(CC)CCNC(=O)Nc1ccc(Oc2ccnc3cc(OC)c(OC)cc23)cc1 [Example 622, N-[2-(Diethylamino)ethyl]-N′-{4-[(6,7-dimethoxy-4-quinolyl)oxy]phenyl}urea]	38			
7.89	6.15	599		CCN(CC)CCNC(=O)Nc1ccc(Oc2ncnc3cc(OC)c(OC)cc23)cc1[N+](=O)[O-] [Example 647, N-[2-(Diethylamino)ethyl]-N′-{4-[(6,7-dimethoxy-4-quinazolinyl)oxy]-2-nitrophenyl}urea]		32		
> 8.00	6.47	323		COc1cc2ncnc(Oc3ccc(NC(=O)NCCN4CCCCC4)c([N+](=O)[O-])c3)c2cc1OC [Example 679, N-{4-[(6,7-Dimethoxy-4-quinazolinyl)oxy]-2-nitrophenyl}-N′-(2-piperidinoethyl)urea]		54	47 (p < 0.001) %	36 (p < 0.05) %
7.59		176	34	CCCCN(CCCC)CCNC(=O)Nc1ccc(Oc2ncnc3cc(OC)c(OC)cc23)cc1[N+](=O)[O-] [Example 687, N-[2-(Dibutylamino)ethyl]-N′-{4-[(6,7-dimethoxy-4-quinazolinyl)oxy]-2-nitrophenyl}urea]		17		
